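Protocol summary: plate cells (96-well), add compound at 5 concentrations, incubate 48 h, interpolate endpoints linearly. Here, GI50 denotes the concentration required for 50% inhibition of growth.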 The source made the active and inactive calls. Cut-off read from the data, not from the text of the source: active = GI50 up to about 1.1 µM and inactive = higher.
Assays:
Assay in all cases: inhibition of tumour cell growth, NCI panel, 48 h
786-0 = tested on: 786-0
A498 = tested on: A498
A549 = tested on: A549
ACHN = tested on: ACHN
CAKI-1 = tested on: CAKI-1
CCRF-CEM = tested on: CCRF-CEM
COLO 205 = tested on: COLO 205
DLD-1 = tested on: DLD-1
DMS-114 = tested on: DMS-114
DMS-273 = tested on: DMS-273
EKVX = tested on: EKVX
HCC 2998 = tested on: HCC 2998
HCT-116 = tested on: HCT-116
HCT-15 = tested on: HCT-15
HL-60 = tested on: HL-60
HOP-18 = tested on: HOP-18
HOP-62 = tested on: HOP-62
HOP-92 = tested on: HOP-92
HT-29 = tested on: HT-29
IGROV-1 = tested on: IGROV-1
K562 = tested on: K562
KM-20L2 = tested on: KM-20L2
KM12 = tested on: KM12
LOX IMVI = tested on: LOX IMVI
LXFL 529 = tested on: LXFL 529
M14 = tested on: M14
M19-MEL = tested on: M19-MEL
MOLT-4 = tested on: MOLT-4
Malme-3M = tested on: Malme-3M
NCI-H226 = tested on: NCI-H226
NCI-H23 = tested on: NCI-H23
NCI-H460 = tested on: NCI-H460
NCI-H522 = tested on: NCI-H522
OVCAR-3 = tested on: OVCAR-3
OVCAR-4 = tested on: OVCAR-4
OVCAR-5 = tested on: OVCAR-5
OVCAR-8 = tested on: OVCAR-8
RXF 393 = tested on: RXF 393
SF-268 = tested on: SF-268
SF-295 = tested on: SF-295
SF-539 = tested on: SF-539
SK-MEL-28 = tested on: SK-MEL-28
SK-MEL-2 = tested on: SK-MEL-2
SK-OV-3 = tested on: SK-OV-3
SN12C = tested on: SN12C
SNB-19 = tested on: SNB-19
SNB-75 = tested on: SNB-75
SNB-78 = tested on: SNB-78
SR = tested on: SR
SW-620 = tested on: SW-620
TK-10 = tested on: TK-10
U-251 = tested on: U-251
UACC-257 = tested on: UACC-257
UACC-62 = tested on: UACC-62
UO-31 = tested on: UO-31
XF498 = tested on: XF498
RPMI-8226 = tested on: RPMI-8226
SK-MEL-5 = tested on: SK-MEL-5

Measured: GI50

CC(C)(C)c1cc([Si](C)(C)C)c(C#N)c([Si](C)(C)C)c1
> 100 µM: HCT-15
inactive: 786-0 > 100 µM | A498 > 100 µM | A549 65.5 µM | ACHN 87.3 µM | CAKI-1 > 100 µM | CCRF-CEM 48.6 µM | COLO 205 51.3 µM | DLD-1 > 100 µM | DMS-114 33.8 µM | DMS-273 49.1 µM | EKVX > 100 µM | HCC 2998 90.6 µM | HCT-116 54.8 µM | HL-60 22 µM | HOP-18 > 100 µM | HOP-62 > 100 µM | HOP-92 > 100 µM | HT-29 76.7 µM | IGROV-1 > 100 µM | K562 > 100 µM | KM-20L2 > 100 µM | KM12 88.9 µM | LOX IMVI 78.5 µM | LXFL 529 > 100 µM | M14 > 100 µM | M19-MEL 43.2 µM | MOLT-4 37.2 µM | Malme-3M > 100 µM | NCI-H226 87.9 µM | NCI-H23 76.9 µM | NCI-H460 > 100 µM | NCI-H522 46.6 µM | OVCAR-3 > 100 µM | OVCAR-4 > 100 µM | OVCAR-5 > 100 µM | OVCAR-8 > 100 µM | RXF 393 36.6 µM | SF-268 41.7 µM | SF-295 29.8 µM | SF-539 > 100 µM | SK-MEL-28 > 100 µM | SK-MEL-2 > 100 µM | SK-OV-3 > 100 µM | SN12C > 100 µM | SNB-19 62.1 µM | SNB-75 47.3 µM | SNB-78 53.2 µM | SR 34.9 µM | SW-620 > 100 µM | TK-10 > 100 µM | U-251 36.1 µM | UACC-257 34.3 µM | UACC-62 60.5 µM | UO-31 > 100 µM | XF498 24.2 µM

O=C(/C=C/c1c(O)ccc2ccccc12)c1cccc(O)c1
> 100 µM: HCT-15
inactive: 786-0 > 100 µM | A498 > 100 µM | A549 > 100 µM | ACHN > 100 µM | CAKI-1 > 100 µM | CCRF-CEM 30.1 µM | COLO 205 > 100 µM | DLD-1 > 100 µM | DMS-114 41.3 µM | DMS-273 > 63.5 µM | EKVX > 100 µM | HCC 2998 > 100 µM | HCT-116 > 100 µM | HL-60 20.7 µM | HOP-18 23 µM | HOP-62 > 100 µM | HOP-92 > 62.8 µM | HT-29 > 100 µM | IGROV-1 > 100 µM | K562 44.3 µM | KM-20L2 > 100 µM | KM12 > 100 µM | LOX IMVI 41.8 µM | LXFL 529 > 83.6 µM | M14 > 100 µM | M19-MEL 17.5 µM | MOLT-4 47 µM | Malme-3M 59.8 µM | NCI-H226 > 100 µM | NCI-H23 > 79.8 µM | NCI-H460 > 100 µM | NCI-H522 63.4 µM | OVCAR-3 > 76.9 µM | OVCAR-4 > 70 µM | OVCAR-5 > 100 µM | OVCAR-8 > 100 µM | RPMI-8226 64.3 µM | RXF 393 > 77.4 µM | SF-268 > 100 µM | SF-295 > 100 µM | SF-539 > 100 µM | SK-MEL-28 > 100 µM | SK-MEL-2 42.3 µM | SK-MEL-5 50.4 µM | SK-OV-3 > 100 µM | SN12C > 100 µM | SNB-19 > 100 µM | SNB-75 71.6 µM | SNB-78 > 100 µM | SR 42.7 µM | SW-620 > 100 µM | TK-10 > 100 µM | U-251 > 91.6 µM | UACC-257 76.9 µM | UACC-62 28.8 µM | UO-31 > 100 µM | XF498 > 100 µM

From ChEMBL document CHEMBL1201862, “PubChem BioAssay data set” (2004)
